Data taken from BindingDB's records for doi:10.1124/jpet.104.074864 (University of Piemonte Orientale, 2005).

Columns and labels:
[1] = target: Cannabinoid receptor 2 (Homo sapiens, UniProt P34972)
[2] = target: T1, Fatty-acid amide hydrolase 1 [30-579] (Rattus norvegicus, UniProt P97612)
T1 construct: 30-579
T1 sequence (P97612 whole entry): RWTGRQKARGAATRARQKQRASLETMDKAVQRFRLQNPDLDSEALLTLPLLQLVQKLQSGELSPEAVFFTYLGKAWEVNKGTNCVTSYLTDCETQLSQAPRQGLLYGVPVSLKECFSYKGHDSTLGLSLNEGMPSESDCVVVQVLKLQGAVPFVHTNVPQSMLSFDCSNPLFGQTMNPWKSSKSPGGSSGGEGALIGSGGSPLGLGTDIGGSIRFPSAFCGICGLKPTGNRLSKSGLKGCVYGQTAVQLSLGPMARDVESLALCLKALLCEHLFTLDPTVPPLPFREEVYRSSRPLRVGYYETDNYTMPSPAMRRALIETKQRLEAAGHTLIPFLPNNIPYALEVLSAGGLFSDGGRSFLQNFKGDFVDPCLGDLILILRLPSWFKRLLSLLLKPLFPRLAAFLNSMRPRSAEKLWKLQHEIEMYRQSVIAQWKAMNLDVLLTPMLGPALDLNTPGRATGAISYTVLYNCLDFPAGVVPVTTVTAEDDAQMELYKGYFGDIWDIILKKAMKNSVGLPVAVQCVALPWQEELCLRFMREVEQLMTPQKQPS

[3] = target: Cannabinoid receptor 1 (Homo sapiens, UniProt P21554)
Sequence of Cannabinoid receptor 1 (P21554 whole entry): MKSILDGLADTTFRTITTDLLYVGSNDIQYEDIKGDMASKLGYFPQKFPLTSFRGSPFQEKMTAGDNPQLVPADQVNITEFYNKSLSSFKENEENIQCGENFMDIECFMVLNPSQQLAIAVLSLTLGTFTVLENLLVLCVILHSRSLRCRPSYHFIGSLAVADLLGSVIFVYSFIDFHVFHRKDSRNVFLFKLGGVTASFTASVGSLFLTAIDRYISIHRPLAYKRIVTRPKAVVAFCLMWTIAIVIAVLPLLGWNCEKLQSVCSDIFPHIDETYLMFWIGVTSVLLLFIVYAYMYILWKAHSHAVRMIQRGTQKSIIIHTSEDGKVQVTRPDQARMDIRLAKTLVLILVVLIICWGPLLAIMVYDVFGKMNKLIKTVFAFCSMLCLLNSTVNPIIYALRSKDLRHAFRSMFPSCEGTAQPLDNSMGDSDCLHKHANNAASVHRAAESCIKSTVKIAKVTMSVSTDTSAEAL

Sequence of Cannabinoid receptor 2 (P34972 whole entry): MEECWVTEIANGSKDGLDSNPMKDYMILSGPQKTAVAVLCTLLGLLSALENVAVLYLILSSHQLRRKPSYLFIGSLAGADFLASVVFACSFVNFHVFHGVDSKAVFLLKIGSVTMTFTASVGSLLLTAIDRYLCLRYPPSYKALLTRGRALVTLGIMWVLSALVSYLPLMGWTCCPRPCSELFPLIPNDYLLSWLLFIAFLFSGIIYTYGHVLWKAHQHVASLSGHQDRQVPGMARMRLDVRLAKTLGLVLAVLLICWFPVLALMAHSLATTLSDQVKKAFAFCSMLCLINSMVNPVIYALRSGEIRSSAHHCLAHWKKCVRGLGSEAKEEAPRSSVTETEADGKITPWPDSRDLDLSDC

COc1cc(CNC(=O)CCCCC=CC(C)C)ccc1O [CAS_404-86-4]
Ki [1]: > 10 µM | Ki [2]: > 10 µM

CCCCCCCCC=CCCCCCCCC(=O)NCc1ccc(O)c(OC)c1 [CAS_58493-49-5]
Ki [3]: > 10 µM | Ki [1]: > 10 µM | Ki [2]: > 10 µM

CCCCCC[C@H](CC=CCCCCCCCC(=O)NCc1cc(I)c(O)c(OC)c1)OC(=O)Cc1ccccc1 [PhAR, 5-I]
Ki [3]: 5 µM | Ki [1]: 1.5 µM | Ki [2]: > 10 µM

CCCCCC[C@H](CC=CCCCCCCCC(=O)NCc1cc(OC)c(O)cc1I)OC(=O)Cc1ccccc1 [PhAR, 6-I]
Ki [3]: 2.5 µM | Ki [1]: 2.2 µM | Ki [2]: > 10 µM

CCCCCCC(CCCCCCCCCCC(=O)NCc1ccc(O)c(OC)c1)OC(=O)Cc1ccccc1 (stereo not given) [PhAR, Di-hydro]
Ki [3]: 5 µM | Ki [1]: 1.1 µM | Ki [2]: > 10 µM

CCCCCCC(C/C=C/CCCCCCCC(=O)NCc1ccc(O)c(OC)c1)OC(=O)Cc1ccccc1 (stereo not drawn) [PhAR, ent]
Ki [3]: 2.4 µM | Ki [1]: 0.4 µM | Ki [2]: > 10 µM

CCCCCC[C@H](CC=CCCCCCCCC(=O)NCc1ccc(O)c(OC)c1)OC(=O)Cc1ccccc1 [PhAR]
Ki [3]: 2.2 µM | Ki [1]: 0.3 µM | Ki [2]: > 10 µM

CCCCCC[C@H](CC=CCCCCCCCC(=O)NCc1ccc(O)c(OC)c1)OC(C)=O [Rinvanil, Acetyl]
Ki [3]: > 10 µM | Ki [1]: > 10 µM | Ki [2]: > 10 µM

CCCCCC[C@H](CC=CCCCCCCCC(=O)NCc1ccc(O)c(OC)c1)OC(=O)c1ccccc1 [Rinvanil, Benzoil]
Ki [3]: 1.3 µM | Ki [1]: 1.4 µM | Ki [2]: > 10 µM

CCCCCC[C@H](CC=CCCCCCCCC(=O)NCc1ccc(O)c(OC)c1)OC(=O)CCc1ccccc1 [Rinvanil, Phenyl-propionyl]
Ki [2]: > 10 µM

CCCCCC[C@@H](O)CC=CCCCCCCCC(=O)NCc1ccc(O)c(OC)c1 [Rinvanil]
Ki [3]: > 10 µM | Ki [1]: > 10 µM | Ki [2]: > 10 µM
